Laboratory results taken from ChEMBL document CHEMBL5036381, “Novel Plasma Kallikrein Inhibitors for Treating Hereditary Angioedema, Diabetic Macular Edema, and Diabetic Retinopathy” (ACS Med Chem Lett, 2022).

Biological target: Plasma kallikrein (Homo sapiens, UniProt P03952)
Test: Inhibition of human plasma kallikrein using fluorogenic substrate measured by microplate reader analysis
Type: cell-free

Plasma kallikrein, sequence (P03952 20-390 limits assumed): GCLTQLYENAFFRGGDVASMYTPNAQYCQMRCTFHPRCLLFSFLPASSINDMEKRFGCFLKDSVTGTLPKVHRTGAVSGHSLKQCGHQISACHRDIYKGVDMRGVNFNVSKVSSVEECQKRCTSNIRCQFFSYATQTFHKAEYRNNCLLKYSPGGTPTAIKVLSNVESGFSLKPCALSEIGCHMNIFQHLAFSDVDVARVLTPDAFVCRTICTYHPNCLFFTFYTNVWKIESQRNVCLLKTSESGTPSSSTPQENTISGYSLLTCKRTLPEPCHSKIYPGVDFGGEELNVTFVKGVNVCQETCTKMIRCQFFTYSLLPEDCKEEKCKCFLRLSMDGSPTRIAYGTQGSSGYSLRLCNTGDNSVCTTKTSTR
Plasma kallikrein, sequence (P03952 391-638 limits assumed): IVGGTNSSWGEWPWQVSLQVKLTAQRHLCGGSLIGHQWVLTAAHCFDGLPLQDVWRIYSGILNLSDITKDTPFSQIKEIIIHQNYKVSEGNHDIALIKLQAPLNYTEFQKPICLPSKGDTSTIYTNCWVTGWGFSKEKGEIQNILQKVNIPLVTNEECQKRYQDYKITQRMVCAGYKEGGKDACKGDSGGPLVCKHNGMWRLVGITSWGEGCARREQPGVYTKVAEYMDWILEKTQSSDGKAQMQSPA

| IC50 [nM] | SMILES |
| --- | --- |
| 0.3 | COc1c(N2C[C@H]3C[C@H]3C2=O)ncc(C(C)n2cc(NC(=O)c3cncc(-c4c(C(F)F)ccc(Cl)c4F)n3)cn2)c1C (some centres not stated) |
| 0.3 | Cc1c([C@H](C)n2cc(NC(=O)c3cncc(-c4c(C(F)F)ccc(Cl)c4F)n3)cn2)cnc(N2C[C@H]3C[C@H]3C2=O)c1F |
